Test results: patent publication US9643964B2, “3-(2-aminopyrimidin-4-yl)-5-(3-hydroxypropynyl)-1H-pyrrolo[2,3-C]pyridine derivatives as NIK inhibitors for the treatment of cancer” (Janssen Pharmaceutica NV, priority 2013, dated 2017)

How the values were obtained:
[1] = biological target: T1, Recombinant Human NF-kappaB-Inducing Kinase (NIK/MAP3K14) (Homo sapiens, UniProt Q99558); assay: Biological Assay A: inhibition of recombinant human NIK/MAP3K14 activity (MBP phosphorylation, Mesoscale); type: biochemical; conditions: averaged over all measurements on all batches; read-out: Biochemical (MSD MBP) IC50
Protocol: Inhibition of Recombinant Human NF-kappaB-Inducing Kinase (NIK/MAP3K14) Activity
Assay buffer was 50 mM Tris pH 7.5 containing 1 mM EGTA (ethylene glycol tetraacetic acid), 1 mM DTT (dithiothreitol), 0.1 mM Na3VO4, 5 mM MgCl2, 0.01% Tween 20. Assays were carried out in 384 well Mesoscale high binding plates which had been coated with myelin basic protein (MBP) and blocked with bovine serum albumin to prevent non-specific protein binding. All compounds tested were dissolved in dimethyl sulfoxide (DMSO) and further dilutions were made in assay buffer. Final DMSO concentration was 1% (v/v) in assays. Incubations consisted of compound (1% DMSO in control and blank wells), 25 μM Adenosine-5′-triphosphate (ATP), and 10 nM NIK/MAP3K14 substituting enzyme with buffer in the blank wells. Incubations were carried out for 1 h at 25° C. and were followed by washing and sequential incubation with rabbit anti-phospho-MBP and anti-rabbit Ig Sulfotag antibody before reading bound Sulfotag on a Mesoscale Discovery. Signal obtained in the wells containing blank samples was subtracted from all other wells and IC50's were determined by fitting a sigmoidal curve to % inhibition of control versus Log10 compound concentration.

LP-1 cells = assay: Biological Assay C: antiproliferative activity on LP-1 cells (CellTiter-Glo); type: cell-based, human; conditions: 72 hr treatment, averaged values
Method in brief: (§1)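 CellTiter-Glo luminescence after 72 h exposure, blank (cells read at compound addition) subtracted, growth expressed as % of untreated control; duplicate wells. Suspension cells in RPMI/10% FCS, 2,000–6,000 cells/well, 0.3% DMSO.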

[2] = biological target: T1, Recombinant Human NF-kappaB-Inducing Kinase (NIK/MAP3K14); assay: Biological Assay A2: inhibition of auto-phosphorylation of recombinant human NIK/MAP3K14 (AlphaScreen); type: biochemical; conditions: auto-phosphorylation; averaged over all measurements on all batches; read-out: αscreen IC50
Method in brief: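 GST-tagged NIK/MAP3K14 (0.2 nM) auto-phosphorylation with 25 microM ATP in 50 mM Tris pH 7.5, 5 mM MgCl2, 1% DMSO; 1 h at 25° C. Phospho-IKK Ser176/180 detected by AlphaScreen; blank-subtracted % inhibition fitted sigmoidally vs log concentration for IC50.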

L-363 cells = assay: Biological Assay C: antiproliferative activity on L-363 cells (CellTiter-Glo); type: cell-based, human; conditions: 72 hr treatment, averaged values
Method in brief: as §1

[3] = system: P-IKKα levels in L363 cells; assay: Biological Assay B: effect of compounds on P-IKKα levels in L363 cells; type: cell-based; conditions: Homo sapiens, L-363, averaged values, read-out: IKKα Cellular IC50
Protocol: Effect of Compounds on P-IKKα Levels in L363 Cells
All compounds tested were dissolved in DMSO and further dilutions were made in culture medium. Final DMSO concentration was 1% (v/v) in cell assays. The human L363 cells (ATCC) were cultured in RPMI 1640 medium supplemented with GlutaMax and 10% fetal calf serum (PAA). Cells were routinely maintained at densities of 0.2×10^6 cells per ml-1×10^6 cells per ml at 37° C. in a humidified 5% CO2 atmosphere. Cells were passaged twice a week splitting back to obtain the low density. Cells were seeded in 96 well plates (Nunc 167008) at 2×10^6 per ml media in a volume of 75 μl per well plus 25 μl 1 μg/ml recombinant human B-cell activating factor BAFF/B1YS/TNFSF13B. Seeded cells were incubated at 37° C. in a humidified 5% CO2 atmosphere for 24 hr. Drugs and/or solvents were added (20 μl) to a final volume of 120 μl. Following 2 hr treatment plates were removed from the incubator and cell lysis was achieved by the addition of 30 μl 5× lysis buffer followed by shaking on a plate shaker at 4° C. for 10 min. At the end of this incubation lysed cells were centrifuged at 800×g for 20 min at 4° C. and the lysate was assessed for P-IKKα levels by sandwich immuno-assay carried out in anti-rabbit antibody coated Mesoscale plates. Within an experiment, the results for each treatment were the mean of 2 replicate wells. For initial screening purposes, compounds were tested using an 8 point dilution curve (serial 1:3 dilutions). For each experiment, controls (containing MG132 and BAFF but no test drug) and a blank incubation (containing MG132 and BAFF and 10 μM ADS125117, a test concentration known to give full inhibition) were run in parallel. The blank incubation value was subtracted from all control and sample values. To determine the IC50 a sigmoidal curve was fitted to the plot of % inhibition of control P-IKKα levels versus Log10 compound concentration.

JJN-3 cells = assay: Biological Assay C: antiproliferative activity on JJN-3 cells (CellTiter-Glo); type: cell-based, human; conditions: 72 hr treatment, averaged values
Method in brief: as §1

T1 sequence (Q99558 whole entry): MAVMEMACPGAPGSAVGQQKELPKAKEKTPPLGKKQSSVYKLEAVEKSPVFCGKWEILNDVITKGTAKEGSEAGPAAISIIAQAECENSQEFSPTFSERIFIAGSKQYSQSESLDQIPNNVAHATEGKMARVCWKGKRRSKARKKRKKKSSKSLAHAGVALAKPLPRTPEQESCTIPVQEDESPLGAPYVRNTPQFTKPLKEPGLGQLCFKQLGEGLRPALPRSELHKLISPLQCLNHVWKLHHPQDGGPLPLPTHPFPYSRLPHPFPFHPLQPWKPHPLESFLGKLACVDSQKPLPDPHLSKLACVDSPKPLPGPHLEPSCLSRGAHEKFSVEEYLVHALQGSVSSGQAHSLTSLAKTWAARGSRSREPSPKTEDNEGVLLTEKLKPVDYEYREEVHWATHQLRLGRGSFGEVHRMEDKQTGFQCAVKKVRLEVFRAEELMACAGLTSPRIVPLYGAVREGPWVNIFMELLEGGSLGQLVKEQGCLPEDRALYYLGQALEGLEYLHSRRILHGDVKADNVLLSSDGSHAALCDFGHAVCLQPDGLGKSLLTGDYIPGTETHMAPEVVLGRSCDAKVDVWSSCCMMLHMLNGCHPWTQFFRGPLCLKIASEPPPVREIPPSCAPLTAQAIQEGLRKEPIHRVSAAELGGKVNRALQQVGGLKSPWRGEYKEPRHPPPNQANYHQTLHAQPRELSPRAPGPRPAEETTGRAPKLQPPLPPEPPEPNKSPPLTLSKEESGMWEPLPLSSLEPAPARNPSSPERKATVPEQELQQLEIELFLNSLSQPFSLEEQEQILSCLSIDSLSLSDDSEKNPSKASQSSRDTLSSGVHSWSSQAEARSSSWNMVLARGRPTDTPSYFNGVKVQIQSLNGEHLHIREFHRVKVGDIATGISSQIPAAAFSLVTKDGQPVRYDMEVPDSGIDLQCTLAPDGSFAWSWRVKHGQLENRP

| SMILES | IC50 [1] | EC50 (LP-1 cells; Homo sapiens, LP-1, 72 h) | IC50 [2] | EC50 (L-363 cells; Homo sapiens, L-363, 72 h) | IC50 [3] | EC50 (JJN-3 cells; Homo sapiens, JJN-3, 72 h) | EC50 (LP-1 cells) | EC50 (L-363 cells) | EC50 (JJN-3 cells) |
| --- | --- | --- | --- | --- | --- | --- | --- | --- | --- |
| CCNc1nccc(-c2c[nH]c3cnc(C#CC(C)(C)O)cc23)n1 [Compound 48] | 65 nM | 3900 nM | 16 nM | 650 nM | 260 nM | 380 nM | – | – | – |
| CC(C)(O)C#Cc1cc2c(-c3nc(N)ncc3Cl)cn(CCO)c2cn1 [Compound 8] | 3.3 nM | 2700 nM | 1 nM | 250 nM | 8 nM | 94 nM | – | – | – |
| CC(C)(O)C#Cc1cc2c(-c3ccnc(N)n3)cn(CC3CCOCC3)c2cn1 [Compound 55] | 84 nM | 11000 nM | 180 nM | 980 nM | 140 nM | 380 nM | – | – | – |
| CC(C)(O)Cn1cc(-c2ccnc(N)n2)c2cc(C#CC(C)(O)c3ccccc3)ncc21 (stereo not shown) [Compound 36] | 17 nM | 12000 nM | 86 nM | 7900 nM | 900 nM | 1700 nM | – | – | – |
| CC(C)(O)Cn1cc(-c2ccnc(N)n2)c2cc(C#CC(C)(O)c3ccccn3)ncc21 (stereo not shown) [Compound 59] | 71 nM | > 10000 nM | 230 nM | > 10000 nM | 5000 nM | 17000 nM | – | – | – |
| CC(C)(O)C#Cc1cc2c(-c3nc(N)ncc3Cl)c[nH]c2cn1 [Compound 14] | 0.9 nM | 390 nM | 0.4 nM | 75 nM | 11 nM | 75 nM | – | – | – |
| CNc1ncc(Cl)c(-c2cn(CC(C)(C)O)c3cnc(C#CC(C)(C)O)cc23)n1 [Compound 58] | 430 nM | 2000 nM | 700 nM | 500 nM | 110 nM | 550 nM | – | – | – |
| CC(C)n1cc(-c2nc(N)ncc2CCCN)c2cc(C#CC(C)(C)O)ncc21 [Compound 118] | 240 nM | 3800 nM | 740 nM | 1600 nM | 1700 nM | 330 nM | – | – | – |
| Cn1cc(-c2ccnc(N)n2)c2cc(C#CC(C)(C)O)ncc21 [Compound 5] | 1.6 nM | 320 nM | 8 nM | 94 nM | 30 nM | 160 nM | – | – | – |
| CN(C)C(=O)Cn1cc(-c2ccnc(N)n2)c2cc(C#CC(C)(C)O)ncc21 [Compound 30] | 120 nM | > 10000 nM | 930 nM | 24000 nM | 1700 nM | 12000 nM | – | – | – |
| COCCn1cc(-c2nc(N)ncc2C#N)c2cc(C#CC(C)(C)O)ncc21 [Compound 41] | 3.5 nM | 2200 nM | 9 nM | 290 nM | 43 nM | 240 nM | – | – | – |
| COCCn1cc(-c2ccnc(N)n2)c2cc(C#CC(C)(C)O)ncc21 [Compound 2] | 9.7 nM | 1900 nM | 48 nM | 210 nM | 82 nM | 220 nM | – | – | – |
| COCCn1cc(-c2ccnc(N)n2)c2cc(C#CC(C)(O)c3ncco3)ncc21 (stereo not shown) [Compound 31] | 36 nM | > 10000 nM | 79 nM | 6400 nM | 110 nM | 1900 nM | – | – | – |
| CC(C)C(C)(O)C#Cc1cc2c(-c3ccnc(N)n3)cn(CC(C)(C)O)c2cn1 (stereo not shown) [Compound 40] | 43 nM | 25000 nM | 110 nM | 4500 nM | 530 nM | 2300 nM | – | – | – |
| CN1CC(n2cc(-c3nc(N)ncc3F)c3cc(C#CC(C)(O)C4CC4)nc(C4CC4)c32)C1 (stereo not shown) [Compound 102] | – | 65 nM | 900 nM | 21 nM | 32 nM | 35 nM | – | – | – |
| COCCCn1cc(-c2nc(N)ncc2F)c2cc(C#CC(C)(O)C3CC3)ncc21 (single isomer, unassigned) [Compound 120] | – | – | 17 nM | – | 20 nM | – | 200 nM | 74 nM | 95 nM |
| CN(C)C(=O)n1cc(-c2nc(N)ncc2F)c2cc(C#CC(C)(O)C3CC3)ncc21 (stereo not shown) [Compound 103] | – | 680 nM | 13 nM | 48 nM | 49 nM | 91 nM | – | – | – |
| CC(O)(C#Cc1cc2c(-c3nc(N)ncc3F)cn(C3COC3)c2cn1)C1CC1 (stereo not shown) [Compound 97] | – | 1200 nM | 21 nM | 100 nM | 70 nM | 170 nM | – | – | – |
| CC(O)(C#Cc1cc2c(-c3nc(N)ncc3F)cn(C3COC3)c2c(C2CC2)n1)C1CC1 (stereo not shown) [Compound 98] | – | 210 nM | 220 nM | 42 nM | 110 nM | 78 nM | – | – | – |
| CC(C)(O)Cn1cc(-c2ccnc(N)n2)c2cc(C#CCO)ncc21 [Compound 62] | 250 nM | 18000 nM | 680 nM | 880 nM | – | 970 nM | – | – | – |
| COCCCn1cc(-c2nc(N)ncc2F)c2cc(C#CC(C)(C)O)ncc21 [Compound 76] | – | 300 nM | 16 nM | 110 nM | 12 nM | 140 nM | – | – | – |
| CC(O)(C#Cc1cc2c(-c3nc(N)ncc3F)cn(C3COC3)c2cn1)C1CC1 (single isomer, unassigned) [Compound 122] | – | – | 26 nM | – | 36 nM | – | 310 nM | 69 nM | 100 nM |
